Results taken from the OPERA property sets (Mansouri et al. 2018).

| SMILES | logP |
| --- | --- |
| O=C(CNC(=O)c1ccccc1)Oc1cccc([N+](=O)[O-])c1 | 2.46 |
| Cc1ccnc2ccccc12 | 2.61 |
| c1ccc(-c2ncncn2)cc1 | 1.93 |
| CC(C)c1ccc(NC(=O)N(C)C)cc1 | 2.87 |
| CCOP(=S)(OCC)SCCSCC | 4.02 |
| COc1ccccc1N(C)C | 1.63 |
| O=Cc1cccc(Oc2ccccc2)c1 | 3.38 |
| c1ccc(N2CCOCC2)cc1 | 1.36 |
| N#C/C=C/C#N | -0.25 |
| CCCCCCCCCC1(c2ccncc2)CCC(=O)NC1=O (stereo not drawn) | 4.64 |
| O=[N+]([O-])c1ncc[nH]1 | 0.15 |
| CC1=CC(=O)C=C(C)C1=O | 1.22 |
| Oc1ccc(Cl)cc1Cc1cc(Cl)ccc1O | 4.26 |
| OC(c1ccc(Cl)cc1)(c1cncnc1)c1ccccc1Cl (stereo not drawn) | 3.6 |
| C(#Cc1ccccc1)c1ccccc1 | 4.78 |
| NC(=O)c1cc([N+](=O)[O-])cc([N+](=O)[O-])c1 | 0.83 |
| O=c1[nH]c2ccccc2o1 | 1.16 |
| CCCCCCBr | 3.8 |
| Cc1nnc(SCC2=C(C(=O)O)N3C(=O)[C@@H](NC(=O)Cn4cnnn4)[C@H]3SC2)s1 | -0.58 |

| SMILES | logP |
| --- | --- |
| FCF | 0.2 |
| CCCc1cc(C(=O)NN)ccn1 | 0.63 |
| C=O | 0.35 |
| Cc1ccc(O)c(O)c1 | 1.37 |
| O=Cc1ccc2cccccc1-2 | 2.64 |
| O=[N+]([O-])C=Cc1ccoc1 | 1.41 |
| N#Cc1cccc(CC(=O)O)c1 | 1.18 |
| O=[N+]([O-])c1ccc(F)cc1 | 1.8 |
| CN(C)C(=O)OCc1ccc(OCc2ccccc2)cc1 | 3.27 |
| OCCOc1ccccc1 | 1.16 |
| CCOP(=S)(OCC)Oc1ccc(SC)cc1C | 4.16 |
| Nc1nccs1 | 0.38 |
| NC(=O)CCOc1ccccc1 | 0.8 |
| CC(=O)C(=Cc1ccc(Br)cc1)C(C)=O | 2.75 |
| O=C1c2ccccc2C(=O)c2ccccc21 | 3.39 |
| CC1(C)C(C(=O)OC(C#N)c2cccc(Oc3ccccc3)c2)C1(C)C (stereo not drawn) | 5.7 |
| O=C(O)CCC(Nc1ccc(Br)cc1)C(=O)O (stereo not drawn) | 1.12 |
| CC(=O)c1ccc(NC=O)cc1 | 0.94 |
| Cc1ccc(C)c(C)c1 | 3.63 |

| SMILES | logP |
| --- | --- |
| CCCC(=NOCC)C1C(=O)CC2(CCC(CC)CC2)OC1=O (stereo not drawn) | 4.48 |
| NS(=O)(=O)c1ccc([N+](=O)[O-])c(C(F)(F)F)c1 | 1.73 |
| CCCCCCCCOC(=O)n1cnc(CC(NC(=O)C2CCC(=O)N2)C(=O)N2CCCC2C(N)=O)c1 (stereo not drawn) | 1.82 |
| CC1CN1C1=CC(=O)c2ccccc2C1=O (stereo not drawn) | 2.17 |
| O=NN1CC=CC1 | 0.26 |
| c1ccc(-c2cc3ccccn3c2)cc1 | 4.29 |
| O=C(O)c1ccccc1F | 1.77 |
| COc1cccc(OC)c1C(=O)N[C@@H]1C(=O)N2[C@@H]1SC(C)(C)[C@@H]2C(=O)O | 1.22 |
| Ic1ccc(I)cc1 | 4.11 |
| OCC(Br)(Br)Br | 2.1 |
| CCSC | 1.54 |
| COc1ccc2cnccc2c1 | 2.22 |
| Nc1ccc(C(=O)Oc2ccc(F)cc2)c(O)c1 | 3.27 |
| CCCCn1cnc2c(N)ncnc21 | 1.25 |
| O=C(O)c1cc(Br)ccc1O | 3.23 |
| O=C(Nc1ccccc1)C(F)(F)F | 2.21 |
| COc1cc2c(c(OC)c1O)-c1ccc(OC)c(=O)cc1[C@@H](NC(C)=O)CC2 | 0.48 |
| CCC(C)(C)C(=O)OC1CC(C)C=C2C=CC(C)C(CCC(O)CC(O)CC(=O)O)C21 (stereo not drawn) | 4.47 |
| CC(C)CO | 0.76 |

Further lines, results first:

| logP | SMILES |
| --- | --- |
| -2.2 | Nc1ccc(C[C@H](N)C(=O)O)cc1 |
| 0.5 | OCCn1nnc2ccccc21 |
| 1.2 | CCOC(OCC)OCC |
| 3.5 | CCCCOc1ccc([N+](=O)[O-])cc1 |
| 1.82 | CCCCC(CC)COC(=O)n1cnc(CC(NC(=O)C2CCC(=O)N2)C(=O)N2CCCC2C(N)=O)c1 (stereo not drawn) |
| 0.62 | O=C(O)CNc1ccccc1 |
| 2.86 | O=C(NC(CO)C(O)c1ccc(-c2ccccc2)cc1)C(Cl)Cl (stereo not drawn) |
| 1.6 | COc1c(O)c(C)c(C)c(O)c1OC |
| 3.28 | CCCNc1nc(NC)nc(SC(F)F)n1 |
| 0.66 | COCCNC(=S)C(F)(F)Cn1cnc([N+](=O)[O-])n1 |
| 1.18 | CCOC(=O)C(F)(F)F |
| 0.66 | O=C(CBr)NC(CO)C(O)c1ccc([N+](=O)[O-])cc1 (stereo not drawn) |
| 5.12 | Cc1cccc(Nc2ccccc2C(=O)O)c1C |
| 2.22 | CCOc1ccc2nccnc2c1 |
| 0.64 | C=CCNC(=O)NCC=C |
| -1.98 | O=c1ccn(C2OC(CO)C(O)C2O)c(=O)[nH]1 (stereo not drawn) |
| 1.07 | O=C(NC(CO)C(O)c1ccc([N+](=O)[O-])cc1)C(F)(F)F (stereo not drawn) |
| 0.5 | CC(=O)Nc1ccncc1 |
| 1.66 | CCCCOC |
| 2.6 | Cc1cccc2cccnc12 |
| 2.82 | FC(F)(Cl)C(F)(F)Cl |
| -0.89 | O=[N+]([O-])c1cnc(NC(CO)C(O)CO)cn1 (stereo not drawn) |
| 4.14 | c1ccc(Cc2ccccc2)cc1 |
| 3.44 | CCCCCCCC1(c2ccncc2)CCC(=O)NC1=O (stereo not drawn) |
| -0.7 | NS(=O)(=O)c1ccc2c(c1)S(=O)(=O)NC=N2 |
| 1.55 | CC(=O)Oc1ccccc1[N+](=O)[O-] |
